Each block holds one molecule with its values, some of them ahead of it.
Key:
PyMT/endotrophin mice = assay: high dosage cisplatin in PyMT/endotrophin mice; type: in vivo, mouse; conditions: cisplatin 2.5 mg/kg, ip. twice a week
Procedure: FIGS. 20A-20C. Endotrophin overexpression confers cisplatin resistance in PyMT mice. FIG. 20A. 10-weeks-aged PyMT and PyMT/endotrophin (PyMT/ETP) mice were given high dosage of cisplatin (2.5 mg/kg, ip., 2 times/week). Tumor growth was determined by caliper measurements. Data represent mean±SD (n=7-10/group). ***p<0.001, PyMT/CIS vs. PyMT/ETP/CIS by 2-way ANOVA. FIGS. 20B-20C. A piece of tumors taken from PyMT (Ctrl-tumor) and PyMT/endotrophin (ETP^+-tumor) mice were implanted into isogenic wild-type hosts. Cisplatin (1 mg/kg, ip., 2 times/week) were injected at 3-weeks post implantation for tumor progression. Tumor volume was determined by caliper measurement. […] Data represent mean±SD (n=7-8/group). *p<0.05 vs. Ctrl-tumors by 2-way ANOVA. Representative images were taken at 70-days post implantation. Scale: 10 mm.

endotrophin+-tumors = assay: allografts of Ctrl- and endotrophin+-cancer cells in wild-type hosts, TZD and cisplatin; type: in vivo, mouse; conditions: cisplatin 1 mg/kg ip. every 5 days, TZD 20 mg/kg or ND
Procedure: FIGS. 21A-21F. TZD synergizes cisplatin sensitivity through suppression of endotrophin-mediated EMT, fibrosis and vasculature. FIGS. 21A-21B. Schematic diagram for allografts (FIG. 21A), indicating cancer cells (0.5×10^6 cells/mouse) were isolated from tumors in PyMT (Ctrl) and PyMT/endotrophin (ETP) mice and implanted into wild-type hosts. Host mice were given TZD (20 mg/kg) or ND diet at 10 days before implantation for tumor progression. Cisplatin (1 mg/kg, ip., every 5 days) was administered at 3-weeks post implantation. […] Data represent mean±SD (n=8-9/group). *p=0.05, **p=0.01 and ***p=0.001 Ctrl/ND vs. ETP/ND; ^##p=0.01 and ^###p=0.001 ETP/ND vs. ETP/TZD by unpaired student t-test. FIGS. 21C-21F. Histological analysis of tumors in allografts after cisplatin treatment. […] Vimentin staining quantification (FIG. 21D), showing decreased EMT in both Ctrl- and endotrophin^+-tumors by TZD. ***p<0.0001 and ^###p<0.0001. Quantification of perfused lectin staining (FIG. 21E), showing the increased functional blood vessels in endotrophin^+-tumors was decreased by TZD. *p=0.015, **p=0.001 and ^##p=0.0088. Masson's Trichrome C staining quantification (FIG. 21F), showing increased fibrosis in endotrophin^+-tumors was decreased by TZD. ***p<0.0001 and ^##p=0.0013. […] Statistics (*Ctrl/ND/CIS vs. Ctrl/TZD/CIS or ETP/ND/CIS; ^#ETP/ND/CIS vs. ETP/TZD/CIS) were analyzed by unpaired student t-test. […]

ETP = biological target: T1, ETP (Mus musculus, UniProt E9PWQ3); assay: in vivo Matrigel bioassay (stromal cell recruitment into plugs); conditions: ETP 100 ng/plug, antibody 20 μg/plug, 2 days after implantation
T1 sequence (E9PWQ3 with tags, fused parts or gaps limits assumed): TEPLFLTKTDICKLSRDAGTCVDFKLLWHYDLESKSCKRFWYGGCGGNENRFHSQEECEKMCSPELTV
Procedure: FIGS. 7A-7I: ETP acts as a chemokine augmenting tumor growth. […] Tumor volume was determined 1 month after implantation (representative images). Data represent mean±SEM (n=5 per group). ***P<0.001, unpaired t test. (FIG. 7B) In vivo Matrigel bioassay. Matrigel (50 μl) was mixed with ETP (100 ng/plug) or PBS and implanted into WT mice in the presence of IgG, 1D11, or 10B6 (20 μg/plug). 2 days after implantation, plugs were excised and stained for FIG. 7H & FIG. 7E. Scale bars: 100 μm. (FIGS. 7C-7H) Cancer cells were plated in the bottom chamber 1 day prior to seeding MS-1 cells (5×10^5 cells/well) and macrophages (1×10^5 cells/well) atop the membrane chamber in Transwell and incubated for 18-24 hours (FIG. 7C). (FIGS. 7D, 7E, 7F, 7G) Representative images of multiple independent experiments. Scale bars: 100 μm. (FIG. 7H) Quantitation (mean±SEM; n=3 per group). ***P<0.001, […], unpaired t test. (FIG. 7I) MS-1 migration assay. MS-1 cells (5×10^5 cells/well) were plated atop the chamber in Transwell and incubated for 24 hours. Chemotaxis was set up by following cell migration from DMEM/serum-free to DMEM/2% FBS/PBS or DMEM/2% FBS/ETP protein (1 μg/well). Images are representative of multiple independent experiments. Data represent mean±SEM (n=3 per group). ***P=0.008, unpaired t test. Scale bars: 100 μm.

Molecule: N.N.[Cl][Pt][Cl] [cisplatin, cis-diammine-dichloro-platinum]
response of PyMT/endotrophin mice to cisplatin treatment (PyMT/endotrophin mice): resistant | tumor growth (volume) of endotrophin+-tumors (endotrophin+-tumors): more resistant

chemokine activity of ETP (stromal cell recruitment into Matrigel plugs) (ETP): completely blocked
B1: 10B6: rat anti-mouse endotrophin monoclonal antibody; light chain variable SEQ ID NO: 2, heavy chain variable SEQ ID NO: 4 (antibody, V domains shown)
VH: QVQLQQSGPELAKPGSSVKISCKASGYTFTSYEMHWIKQRPGQGLEWIGYIYPESGSTGYNEKFKGKATLTVDKSSPTAYMQLSSLTPDNSAVYFCTRGLRVLGYVMDVWGHGTSVTVSS
VL: DVQLTQSPSFLSASVGDRVTINCKASQNINKYLNWYQQKLGEAPKRLIYNTNNLQTGIPSRFSGSASGTDYTLTISSLHPEDFATYFCLQHSSLYTFGAGTKLELK

— patent US10975142B2, “Endotrophin neutralization and use thereof” (THE BOARD OF REGENTS OF THE UNIVERSITY OF TEXAS SYSTEM, priority 2013, dated 2021)
